Data from patent US9512144B2, “Imidazothiazole sufonamides as nematicides” (BAYER CROPSCIENCE AKTIENGESELLSCHAFT, priority 2013, dated 2016).

What was measured:
[1] = test system: Meloidogyne incognita; test: Meloidogyne incognita test: compound solution poured into pots with soil (loamy sand), salad seeds, gall formation after 21 days; format: in vivo; conditions: salad in soil
Protocol: Solvent: 7 parts by weight of dimethylformamide Emulsifier: 2.5 parts by weight of alkylarylpolyglycolether To produce a suitable preparation of active compound, 1 part by weight of active compound is mixed with the stated amount of solvent and emulsifier and is diluted with water to the desired concentration. In the calculation of the concentration the soil volume has to be included. […] Further test concentrations are prepared by dilution with water. The compound solution is poured into pots filled with soil (loamy sand). A suspension containing eggs and larvae of the southern root-knot nematode (Meloidogyne incognita) is added, salad seeds are spread on the soil surface and covered with quartz sand. The salad seeds germinate and the seedlings grow. Galls develop on the roots. After 21 days the nematicidal activity is determined on the basis of the percentage of gall formation. 100% means no galls were found; 0% means the number of galls found on the roots of the treated plants was equal to that in untreated control plants.

[2] = test system: Meloidogyne incognita; test: Meloidogyne incognita test (MELGIN): sand, salad seeds, gall formation after 14 days; format: in vivo; conditions: application rate 20 ppm, salad seedlings in sand
Protocol: Solvent: 125.0 parts by weight of acetone To produce a suitable preparation of active compound, 1 part by weight of active compound is mixed with the stated amount of solvent, and the concentrate is diluted with water to the desired concentration. Vessels are filled with sand, a solution of the active ingredient, a suspension containing eggs and larvae of the southern root-knot nematode (Meloidogyne incognita) and salad seeds. The salad seeds germinate and the seedlings grow. Galls develop in the roots. After 14 days the nematicidal activity is determined on the basis of the percentage of gall formation. 100% means that no galls were found; 0% means that the number of galls found on the roots of the treated plants was equal to that in untreated control plants.

SMILES | nematicidal activity on the basis of the percentage of gall formation (100% = no galls) [2] | also measured
O=C(NS(=O)(=O)c1cc(C(F)(F)F)ccc1Br)c1cn2cc(C(F)(F)F)sc2n1 [Example I-1-5] | 100% | nematicidal activity on the basis of the percentage of gall formation (100% = no galls) ([1]; application rate 4 ppm): 90%
Cc1ccc(C)c(S(=O)(=O)NC(=O)c2cn3cc(C(F)(F)F)sc3n2)c1 [Example I-1-9] | 100% | nematicidal activity on the basis of the percentage of gall formation (100% = no galls) ([1]; application rate 8 ppm): 100%
O=C(NS(=O)(=O)c1cc(C(F)(F)F)ccc1Br)c1cn2cc(C(F)(F)C(F)(F)F)sc2n1 [Example I-1-223] | 100% | nematicidal activity on the basis of the percentage of gall formation (100% = no galls) ([1]; application rate 4 ppm): 80%
Cc1c(C(F)(F)F)sc2nc(C(=O)NS(=O)(=O)c3ccccc3Cl)cn12 [Example I-1-154] | 90% | nematicidal activity on the basis of the percentage of gall formation (100% = no galls) ([1]; application rate 4 ppm): 99%
O=C(NS(=O)(=O)c1cc2c(cc1Cl)OC(F)(F)O2)c1cn2cc(C(F)(F)F)sc2n1 [Example I-1-12] | 100% | nematicidal activity on the basis of the percentage of gall formation (100% = no galls) ([1]; application rate 8 ppm): 95%
CCOc1ccc(Cl)c(S(=O)(=O)NC(=O)c2cn3cc(C(F)(F)F)sc3n2)c1 [Example I-1-286] | 100% | nematicidal activity on the basis of the percentage of gall formation (100% = no galls) ([1]; application rate 1 ppm): 85%
COc1ccc(F)c(S(=O)(=O)NC(=O)c2cn3cc(C(F)(F)F)sc3n2)c1 [Example I-1-27] | 100% | nematicidal activity on the basis of the percentage of gall formation (100% = no galls) ([1]; application rate 2 ppm): 80%
Cc1c(C(F)(F)C(F)(F)F)sc2nc(C(=O)NS(=O)(=O)c3c(Cl)cccc3Cl)cn12 [Example I-1-254] | 100% | nematicidal activity on the basis of the percentage of gall formation (100% = no galls) ([1]; application rate 8 ppm): 85%
O=C(NS(=O)(=O)c1c(Cl)cccc1Cl)c1cn2cc(C(F)(F)C(F)(F)F)sc2n1 [Example I-1-146] | 100% | nematicidal activity on the basis of the percentage of gall formation (100% = no galls) ([1]; application rate 8 ppm): 90%
Cc1ccc(C)c(S(=O)(=O)NC(=O)c2cn3cc(C(F)(F)C(F)(F)F)sc3n2)c1 [Example I-1-225] | 90% | nematicidal activity on the basis of the percentage of gall formation (100% = no galls) ([1]; application rate 8 ppm): 80%
Cc1ccc(Cl)cc1S(=O)(=O)NC(=O)c1cn2cc(C(F)(F)F)sc2n1 [Example I-1-8] | 100% | nematicidal activity on the basis of the percentage of gall formation (100% = no galls) ([1]; application rate 4 ppm): 95%
O=C(NS(=O)(=O)c1ccccc1F)c1cn2cc(C(F)(F)C(F)(F)F)sc2n1 [Example I-1-226] | 100% | nematicidal activity on the basis of the percentage of gall formation (100% = no galls) ([1]; application rate 8 ppm): 80%
O=C(NS(=O)(=O)c1ccccc1Cl)c1cn2cc(C(F)(F)F)sc2n1 [Example I-1-3] | 100% | nematicidal activity on the basis of the percentage of gall formation (100% = no galls) ([1]; application rate 2 ppm): 95%
COc1ccc(Cl)c(S(=O)(=O)NC(=O)c2cn3cc(C(F)(F)F)sc3n2)c1 [Example I-1-1, N-[(2-chloro-5-methoxyphenyl)sulfonyl]-2-(trifluoromethyl)imidazo[2,1-b][1,3]thiazole-6-carboxamide] | 100% | nematicidal activity on the basis of the percentage of gall formation (100% = no galls) ([1]; application rate 2 ppm): 95%
COc1ccc(Cl)c(S(=O)(=O)NC(=O)c2cn3cc(C(C)(C)C)sc3n2)c1 [Example I-1-23] | 100% | 
O=C(NS(=O)(=O)c1cccc(Cl)c1)c1cn2cc(Cl)sc2n1 [Example I-1-50] | 100% | 
O=C(NS(=O)(=O)c1ccccc1OC(F)(F)F)c1cn2cc(C(F)(F)F)sc2n1 [Example I-1-281] | 90% | 
O=C(NS(=O)(=O)c1cccc(Cl)c1)c1cn2cc(C(F)(F)F)sc2n1 [Example I-1-272] | 90% | 
O=C(NS(=O)(=O)c1cc(Cn2cccn2)ccc1Cl)c1cn2cc(C(F)(F)C(F)(F)F)sc2n1 [Example I-1-292] | 100% | 

SMILES | nematicidal activity on the basis of the percentage of gall formation (100% = no galls) [2] | also measured
Cc1ccc(Cn2cccn2)cc1S(=O)(=O)NC(=O)c1cn2cc(C(F)(F)F)sc2n1 [Example I-1-288] | 90% | 
CCCOc1ccc(Cl)cc1S(=O)(=O)NC(=O)c1cn2cc(C(F)(F)F)sc2n1 [Example I-1-313] | 100% | 
O=C(NS(=O)(=O)c1ccc(Cl)cc1)c1cn2cc(Cl)sc2n1 [Example I-1-51] | 100% | 
O=C(NS(=O)(=O)c1cccc(Cl)c1Cl)c1cn2cc(C(F)(F)C(F)(F)F)sc2n1 [Example I-1-236] | 100% | 
O=C(NS(=O)(=O)c1ccccc1Cl)c1nc2sc(C(F)(F)F)cn2c1Cl [Example I-3-3] | 100% | 
O=C(NS(=O)(=O)c1ccccc1Cl)c1cn2nc(C(F)(F)F)sc2n1 [Example I-1-202] | 90% | 
CCCOc1ccc(Cl)c(S(=O)(=O)NC(=O)c2cn3cc(C(F)(F)C(F)(F)F)sc3n2)c1 [Example I-1-238] | 100% | 
Cc1ccc(C)c(S(=O)(=O)NC(=O)c2cn3cc(Cl)sc3n2)c1 [Example I-1-22] | 100% | 
O=C(NS(=O)(=O)c1cc(C(F)(F)F)ccc1Cl)c1cn2cc(Cl)sc2n1 [Example I-1-21] | 100% | 
O=C(NS(=O)(=O)c1cc(Cl)ccc1Cl)c1cn2cc(Cl)sc2n1 [Example I-1-18] | 90% | 
O=C(NS(=O)(=O)c1ccc(Cl)cc1Cl)c1cn2cc(C(F)(F)C(F)(F)F)sc2n1 [Example I-1-224] | 100% | 
O=C(NS(=O)(=O)c1ccc(Br)c(Cn2cccn2)c1)c1cn2cc(C(F)(F)C(F)(F)F)sc2n1 [Example I-1-293] | 100% | 
CC(=O)c1ccc(Cl)c(S(=O)(=O)NC(=O)c2cn3c(C)c(C(F)(F)F)sc3n2)c1 [Example I-1-302] | 100% | 
O=C(NS(=O)(=O)c1cc(Cl)ccc1Cl)c1cn2cc(C(F)(F)F)sc2n1 [Example I-1-6] | 100% | 
O=C(NS(=O)(=O)c1ccccc1Cl)c1nc2sc(C(F)(F)F)cn2c1Br [Example I-3-1] | 100% | 
O=C(NS(=O)(=O)c1ccccc1Cl)c1nc2sc(C(F)(F)F)cn2c1I [Example I-3-5] | 100% | 
O=C(NS(=O)(=O)c1ccc(Cl)cc1Cl)c1cn2cc(C(F)(F)F)sc2n1 [Example I-1-279] | 90% | 
Cc1ccc(C(C)(C)C)cc1S(=O)(=O)NC(=O)c1cn2cc(C(F)(F)C(F)(F)F)sc2n1 [Example I-1-233] | 100% | 
